#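 Growth conditions: 96-well plates. Treatment: test compound, 48 hours, 5 concentrations. Analysis: linear interpolation between bracketing concentrations; unreached endpoints set to highest concentration. Here, GI50 denotes the concentration required for 50% inhibition of growth. TGI denotes the concentration required for complete inhibition of growth.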
# Tested on: MDA-MB-468 breast
# Assay: DTP human tumour cell line panel, 48 h
SMILES,GI50,TGI
COc1cc(-c2nccc3cc4c(cc23)OCO4)cc(OC)c1OC,1620 nM,6240 nM
O=C1Nc2ccccc2/C1=C/c1cn(CC(O)Cn2cc(/C=C3\C(=O)Nc4ccccc43)c3ccccc32)c2ccccc12 (stereo not drawn),2030 nM,3750 nM
COc1cc(CN(c2ccc(C)cc2)C2OC(=O)c3ccccc32)cc(OC)c1OC (stereo not drawn),132 nM,527 nM
CC(=O)O[C@H](C[C@H](C(C)C)N(C)C(=O)[C@@H](NC(=O)[C@H]1CCCCN1C)C(C)C)c1cccc(C(=O)N[C@@H](Cc2ccccc2)C[C@H](C)C(=O)O)n1,5.39 nM,102 nM
Cc1nc(Sc2nc3ccc([N+](=O)[O-])cc3s2)sc1C,1620 nM,3590 nM
NCCOc1ncccc1/C=C1\c2ccccc2-c2ccc([N+](=O)[O-])cc21,71.2 nM,351 nM
COc1ccc(-c2n[nH]nc2-c2cc(OC)c3c(c2)OCO3)cc1,23 nM,42600 nM
O=C(Nc1ccc2c(c1)OCCO2)C(=O)c1c[nH]c2ccccc12,1090 nM,20700 nM
O=C(CSc1nc2sc3c(c2c(=O)n1-c1ccc(Cl)cc1)CCCC3)NNC(=O)Nc1cccc(C(F)(F)F)c1,2210 nM,5360 nM
COc1ccc(-c2nsc3c2NC(=O)CC3c2cccc(Cl)c2)cc1 (stereo not drawn),735 nM,11000 nM
Cn1cncc1-c1c(F)cncc1NC(=O)c1c(N)nn2cc(F)cnc12,1960 nM,16200 nM
Cn1cc(C2=C(c3ccccc3C(F)(F)F)C(=O)NC2=O)c2ccccc21,11600 nM,> 25000 nM
CCN(CC)c1ccc(/C=N/NC(=O)CSc2nc3ccccc3c(=O)n2Cc2ccc(S(N)(=O)=O)cc2)c(O)c1,524 nM,5030 nM
O=C(Oc1ccccc1)C(Br)C(Br)c1ccccc1 (stereo not drawn),1610 nM,3370 nM
Cc1c(C)c2c(c(C)c1OCC(=O)O)CC[C@@](C)(CCC[C@@H](C)CCC[C@@H](C)CCCC(C)C)O2,58100 nM,152000 nM
NC(CSC(c1ccccc1)(c1ccccc1)c1ccc(F)cc1)C(=O)O (stereo not drawn),233 nM,
CC/C(Cc1ccccc1)=C(/c1ccc(O)cc1)c1ccc(OCCN2CCCC2)cc1,1660 nM,3280 nM
C=C1C(=O)O[C@H]2[C@H]1CC/C(COC(=O)NCCc1cccc(OC)c1)=C\CC[C@@]1(C)O[C@@H]21,850 nM,3270 nM
CCc1nn2ncccc2c1-c1ccnc(NC2CC2)n1,> 21200 nM,> 25000 nM
O=C(/C=C\n1cnc(-c2cc(C(F)(F)F)cc(C(F)(F)F)c2)n1)N1CC(F)(F)C1,697 nM,6190 nM
CN1CCN(CCCOc2cccc3nc(Nc4ccc(F)c(F)c4)ccc23)CC1,2110 nM,6730 nM

SMILES,GI50,TGI
COc1cccc(NC(=O)c2sc3nc4c(cc3c2N)C(O)CCC4)c1 (stereo not drawn),88.1 nM,6700 nM
COc1ccc2c(c1)O/C(=C\c1cccc(OCC(=O)Nc3nc(C)c(C)s3)c1)C2=O,274 nM,2120 nM
O=C(/C=C/c1cc(Cl)ccc1Cl)Nc1ncc(Cc2ccc(Cl)cc2)s1,277 nM,3080 nM
C[C@H](NC(=O)c1c(C(F)F)nn(C)c1Oc1cccc(C(F)(F)F)c1)c1ccc(C(=O)O)cc1,> 100000 nM,> 100000 nM
CCCCCCNC(=O)Oc1ccc(/C(=C(\C)c2ccc(Cl)cc2)c2ccc(OCCN(C)C)cc2)cc1,1590 nM,3120 nM
Nc1ccc(-c2ccc3ncc4ccc(=O)n(-c5cccc(C(F)(F)F)c5)c4c3c2)cn1,< 10 nM,43.1 nM
CCOc1ccc(C(C)=O)cc1NC(=O)c1cccc(-c2nnn(CC)n2)c1,557 nM,6070 nM
Cc1noc(C)c1-c1cnc2c(-c3ccc(C(=O)O)cc3)cn([C@@H](C)c3ccccn3)c2c1,309 nM,27200 nM
COc1cc(NC(C)CCCNC(C)C)c2ncccc2c1OC (stereo not drawn),25600 nM,> 100000 nM
COc1ccc2[nH]c(C(=O)OCc3ccc4cccc(O)c4n3)cc2c1,1370 nM,3080 nM
COc1cc(-c2cc3ncccc3c3[nH]c(=O)c4cccnc4c23)cc(OC)c1OC,1610 nM,96100 nM
COc1cc(Nc2ncnc(Nc3ccc4c(n3)NC(=O)C(C)(C)O4)n2)cc(OC)c1OC,522 nM,> 100000 nM
CCc1nc2cc(/C=C/C(=O)NO)ccc2c(=O)n1CCc1ccc(OC)cc1,1690 nM,5570 nM
Oc1c(O)c(Cl)c(Cl)c(Cl)c1Cl,2580 nM,7340 nM
CCCCN1C(=O)/C(=c2\sc3n(c2=O)C2C(NN=3)N(CC)C(=O)N2CC)c2ccccc21 (stereo not drawn),361 nM,2390 nM
COc1ccc(-c2nn3ncccc3c2-c2ccnc(Nc3ccc4c(c3)OCCO4)n2)cc1,4000 nM,> 21100 nM
CCN(CC)c1ccc2nc3ccc(N=Nc4ccc(O)cc4)cc3[n+](-c3ccccc3)c2c1,1470 nM,3610 nM
O=C(O)Cn1ccc2ccccc21,> 100000 nM,> 100000 nM
CCOC(=O)C#Cc1c(C(=O)OCC)nnn1[C@@H]1O[C@H](CO)[C@H]2OC3(CCCCC3)O[C@H]21,1780 nM,3890 nM
CC(C)(C)c1nc(-c2cccc(NS(=O)(=O)c3c(F)cccc3F)c2F)c(-c2ccnc(N)n2)s1,31700 nM,> 100000 nM
COc1cc2nc(-c3cccc4cccnc34)nc(NC3CCN(Cc4ccccc4)CC3)c2cc1OC,1430 nM,2960 nM

# Source: PubChem BioAssay (NCI)
